The values that follow come from patent publication US10059733B2 (NUCORION PHARMACEUTICALS, INC., priority 2014, dated 2018).

In general, IC50 refers to the concentration needed to halve the response being measured.

Like-named read-outs stand apart in the source and are kept apart here.

One data set has as its system HCV luciferase replicon. Put plainly: IC50 assay: inhibition of the HCV luciferase replicon in Huh7 cells. It is filed as cell-based. As to conditions: for IC50: Hepatitis C virus; for Therapeutic Index (TC50/IC50): TC50 in Huh7 / IC50 HCV replicon, 48 h. The method, then: After 48 h of treatment at 37° C., the media in each well was removed, the cells were gently washed once with phosphate buffered saline (PBS) and subsequently lysed by the addition of Glo Lysis Buffer (Promega). After a 15 min incubation at room temperature to allow for complete cell lysis, Bright-Glo luciferase reagent (Promega) was added to each well and the relative luciferase activity in each well was determined by using a Glowmax 96 microplate luminometer (Promega).
IC50 values determined using the above methods for inhibition of the HCV luciferase replicon in Huh7 cells are set forth in Table 1.
All compounds were purified by HPLC.

The test system of the next data set is HEK293. Description: TC50 assay with human cancer cell lines, 96 h: HEK293. The format is cell-based.
Data set [1] relates to PK9 cells. Put plainly: TC50 assay in PK9 cells, 48 h. As to conditions: Homo sapiens, PK9, 48 h, read-out: TC50 (μM) in PK9 cells at 48 hr. The protocol:
(§1) Huh7 cells were maintained at 37° C. in a humidified atmosphere at 5% CO2 in DMEM containing 10% FBS. […] The cells were then treated with each compound at concentrations ranging from 500 μM to 0 μM in triplicate in DMEM media containing 2% FBS and 0.5% DMSO and without phenol red. After 48 h of treatment at 37° C., the relative number of living cells in each well was determined by using the CellTiter 96 system (Promega) according to the manufacturer's instructions. The 3-(4,5-dimethylthiazol-2-yl)-5-(3-carboxymethoxyphenyl)-2-(4-sulfophenyl)-2H-tetrazolium (MTS) and phenazine methosulfate (PMS) reagents were added to each well of the 96-well plate and the plate was incubated at 37° C. for approximately 2 h. The absorbance at 490 nm and 650 nm in each well was then determined by using a Flexstation 3 microplate reader ([…]). The absorbance determined at 650 nm was then subtracted from the absorbance determined at 490 nm to correct for light scattering. The corrected absorbance values representing the relative number of live cells in each condition were then plotted as a function of compound concentration, and the data were then fit to the following sigmoidal Emax equation by using Kaleidagraph: y=(Emax*x^Slope)/(TC50^Slope+x^Slope) where y is the relative corrected absorbance value, Emax is the maximum relative inhibition, x is the compound concentration, TC50 is the concentration of the compound at which the total cell population is reduced by 50%, and Slope is the slope of the curve.
(§2) PK9 and RPK9 cells were maintained at 37° C. in a humidified atmosphere at 5% CO2 in Roswell Park Memorial Institute (RPMI) media containing 10% FBS. […] The cells were then treated with each compound at concentrations ranging from […] to 0 μM in triplicate in RPMI media containing 2% FBS and 0.5% DMSO and without phenol red. […] The RPK9 cells were derived from the parental PK9 cell line, and are deficient for dCK activity due to the partial deletion of the dCK gene.

Data set [2] is described as follows: TC50 assay in Huh7 cells, 48 h (CellTiter 96). Particulars: human. The method, then: as §1
(§3) The data in Table 1 were determined for cells exposed to drug for 48 h. The IC50 is the concentration of each compound necessary to inhibit the replication of the HCV luciferase replicon to 50%. “TC50,” refers to toxic concentration necessary to reduce the cell population by 50%. All compounds were purified by HPLC.

The subject of the next data set is RPK9 cells. Put plainly: TC50 assay in gemcitabine resistant (dCK deficient) RPK9 cells, 48 h. As to conditions: read-out: TC50 (μM) in RPK9 cells at 48 hr. The protocol:
as §1, §2

The next data set has as its system BxPC3. Put plainly: TC50 assay with human cancer cell lines, 96 h: BxPC3. The format is cell-based.
A further data set deals with HEPG2. Put plainly: TC50 assay with human cancer cell lines, 96 h: HEPG2. The format is cell-based.
A further data set deals with MCF-7. Description: TC50 assay with human cancer cell lines, 96 h: MCF-7. It is filed as cell-based.
Another data set has as its system Huh7. Description: TC50 assay with human cancer cell lines, 96 h: Huh7. The format is cell-based.
The subject of data set [3] is Huh7 cells. Put plainly: TC50 assay in Huh7 cells, 48 h (CellTiter 96). As to conditions: read-out: TC50; Huh7 cells, 48 h exposure. The protocol: as §1, §3
Data set [4] concerns PK9 cells. Description: Cell transport: cytotoxicity in PK9 cells with or without ENT1 inhibitor NBTI. As to conditions: Homo sapiens, PK9, 48 h. The method, then: as §1
(§4) To this end, Huh7 cells or PK9 cells were seeded in 96-well plates at a density of 5,000 cells/well or 2,500 cells/well, respectively, and the plates were incubated at 37° C. for 24 h to allow for cell attachment. The media was then removed from the plates and replaced with media containing 2% FBS, 0.5% DMSO and 10 μM NBTI. […] Subsequently, the cells were treated with each compound at final concentrations ranging from 500 μM to 0 μM in triplicate in media containing 2% FBS, 0.5% DMSO and 10 μM NBTI. […] The TC50 values of each compound in the presence or absence of the ENT1 inhibitor were then compared.

Data set [5] deals with Huh7 cells. Description: Cell transport: cytotoxicity in Huh7 cells with or without ENT1 inhibitor NBTI. Particulars: Homo sapiens, Huh-7, 48 h. The protocol:
as §1, §4

Data set [6] in a line: Tolerability of single oral dosage in HCV-infected chimpanzees. The format is in vivo, chimpanzee. As to conditions: single oral dosage 260 mg. The method, then:
(§5) Via oral gavage, two HCV-infected chimpanzees I (male, 56.49 kg and 11 years old; genotype 1b HCV) and II (male, 61.91 kg and 34 years old; genotype 1a HCV) each received a single dosage of 200 mg of Compound 1 in Formulation I while the HCV-infected chimpanzee III (male, 56.19 kg and 18 years old; genotype 1a HCV) was administered a single dosage of 260 mg of the non-phosphorylated analog of Compound 1 (Table 1) in Formulation I. After 12 hours, the HCV viral titer decreased from 24,100 to 10,200 IU/ml (or 58% drop) in Chimpanzee I, from 38,500 to 27,000 IU/ml (or 30% drop) in Chimpanzee II, and from 154,000 to 142,000 IU/ml (or 8% drop) in Chimpanzee III. […] All animals were fasted overnight prior to dosing and a minimum of 2 hours prior to scheduled blood sample collections. Viral load determinations were performed on plasma samples using the HCV TaqMan assay (COBAS® AmpliPrep/COBAS® TaqMan® HCV Test, Version 2, Test Code 1220) for quantitative analysis. […] There were no adverse effects, illness, nor distress seen with the three chimpanzees during the study requiring veterinarian intervention.

The subject of another data set is genotype 1a HCV. Description: Oral administration to HCV-infected chimpanzees, viral load (genotype 1a). Particulars: Chimpanzee III. The format is in vivo, chimpanzee. The protocol: as §5
The mark [7] stands for this setting: HEK293, 96 h, read-out: TC50 HEK293 (μM).
Where [8] appears, read: BXPC-3, 96 h, read-out: TC50 BxPC3 (μM).
Where [9] appears, read: HepG2, 96 h, read-out: TC50 HEPG2 (μM).
[10] abbreviates: MCF7, 96 h, read-out: TC50 MCF-7 (μM).
The mark [11] stands for this setting: Huh-7, 96 h, read-out: TC50 Huh7 (μM).
Where [12] appears, read: Huh-7, Huh7 cells containing HCV luciferase replicon, 48 h exposure, read-out: IC50.
Setting [13] is: HEK293, 96 h of treatment, read-out: TC50 HEK293.
The mark [14] stands for this setting: BXPC-3, 96 h of treatment, read-out: TC50 BxPC3.
Setting [15] is: HepG2, 96 h of treatment, read-out: TC50 HEPG2.
[16] abbreviates: MCF7, 96 h of treatment, read-out: TC50 MCF-7.
Where [17] appears, read: Huh-7, 96 h of treatment, read-out: TC50 Huh7.
Setting [18] is: read-out: TC50 (μM) in PK9 cells at 48 h Without NBTI.

Description for BxPC3: (§6) Huh7 cells were maintained at 37° C. in a humidified atmosphere at 5% CO2 in DMEM containing 10% FBS. […] The cells were then treated with each compound at concentrations ranging from 500 μM to 0 μM in triplicate in DMEM media containing 2% FBS and 0.5% DMSO and without phenol red. After 48 h of treatment at 37° C., the relative number of living cells in each well was determined by using the CellTiter 96 system (Promega) according to the manufacturer's instructions. The 3-(4,5-dimethylthiazol-2-yl)-5-(3-carboxymethoxyphenyl)-2-(4-sulfophenyl)-2H-tetrazolium (MTS) and phenazine methosulfate (PMS) reagents were added to each well of the 96-well plate and the plate was incubated at 37° C. for approximately 2 h. The absorbance at 490 nm and 650 nm in each well was then determined by using a Flexstation 3 microplate reader (Molecular Dynamics). The absorbance determined at 650 nm was then subtracted from the absorbance determined at 490 nm to correct for light scattering. The corrected absorbance values representing the relative number of live cells in each condition were then plotted as a function of compound concentration, and the data were then fit to the following sigmoidal Emax equation by using Kaleidagraph: y=(Emax*x^Slope)/(TC50^Slope+x^Slope) where y is the relative corrected absorbance value, Emax is the maximum relative inhibition, x is the compound concentration, TC50 is the concentration of the compound at which the total cell population is reduced by 50%, and Slope is the slope of the curve.
(§7) Huh7, HEPG2, HEK293, MCF-7 and BxPC3 cell lines were maintained at 37° C. in a humidified atmosphere at 5% CO2 in DMEM containing 10% FBS. […] The cells were then treated with each compound at concentrations ranging from 500 μM to 0 μM in triplicate in DMEM media containing 2% FBS and 0.5% DMSO and without phenol red.
Description for HEK293: as §6, §7
Description for HEPG2: as §6, §7
Description for MCF-7: as §6, §7

As to `CC(C)OC(=O)[C@H](C)N[P@](=O)(OC[C@H]1O[C@@H](n2ccc(NC(=O)c3ccc4c(c3)OCO4)nc2=O)C(F)(F)C1O)Oc1ccccc1` (stereo in doubt) [Compound 4], the IC50 in the data set with HCV luciferase replicon (Huh-7, 48 h) came out at 0.309 ± 0.045 µM. Moreover, in the data set with HCV luciferase replicon, the “Therapeutic Index (TC50/IC50)” value stood at 134. The CC50 with HEK293 (setting [7]) came out at 2.7 µM; in the data set with PK9 cells [1], 16 ± 4.8 µM; with RPK9 cells, 20.3 ± 3.9 µM; with BxPC3 (setting [8]), 4.05 µM; in the data set with HEPG2 (setting [9]) it was 3.22 µM; in the data set on MCF-7 (setting [10]) it was 1.93 µM. Further, the CC50 in the data set with Huh7 (setting [11]) was found to be 5.5 µM. The CC50 at 48 h in [2] is 41.5 ± 5.6 µM.

In the case of `COc1cc(C(=O)Nc2ccn([C@@H]3O[C@H](CO)[C@@H](O)C3(F)F)c(=O)n2)cc(OC)c1OC` [Non-phosphorylated analog of Compound 3, N-(1-((2R,4R,5R)-3,3-difluoro-4-hydroxy-5-(hydroxymethyl)tetrahydrofuran-2-yl)-2-oxo-1,2-dihydropyrimidin-4-yl)-3,4,5-trimethoxybenzamide], the IC50 in the data set with HCV luciferase replicon (setting [12]) is 0.0493 ± 0.0088 µM. Also, in the data set with HCV luciferase replicon, the “Therapeutic Index (TC50/IC50)” value came out at 10040. For the same molecule, the CC50 was 1.28 µM in the data set on HEK293 (setting [13]); 1.69 ± 0.1 µM with PK9 cells [1]; 495 ± 97 µM in the data set with Huh7 cells [3]; over 500 µM in the data set on RPK9 cells; 1.83 µM in the data set with BxPC3 (setting [14]); 1.67 µM in the data set with HEPG2 (setting [15]). In addition, the CC50 came to 0.566 µM in the data set with MCF-7 (setting [16]) and 5.05 µM with Huh7 (setting [17]).

`Nc1ccn([C@@H]2O[C@H](CO)[C@@H](O)C2(F)F)c(=O)n1` [Gemcitabine, 2′,2′-difluorodeoxycytidine, reference compound]: the CC50 with PK9 cells [4] (setting [18]) is 0.095 µM; in the data set on HEK293 (setting [13]), 0.56 ± 0.13 µM; with PK9 cells [1], 0.095 ± 0.035 µM; in the data set with RPK9 cells, over 500 µM; with BxPC3 (setting [14]) it was 0.0029 ± 0.003 µM; in the data set with HEPG2 (setting [15]) it was 0.311 ± 0.055 µM. Also, the results for the CC50 in the data set with MCF-7 (setting [16]) and with Huh7 (setting [17]) were 0.067 ± 0.014 µM and 3.41 ± 1.36 µM, respectively. In addition, the IC50 with HCV luciferase replicon (setting [12]) was 0.058 ± 0.006 µM.

Molecule `COc1cc(C(=O)Nc2ccn([C@@H]3O[C@H](CO[P@@](=O)(N[C@@H](C)C(=O)OC(C)C)Oc4ccccc4)C(O)C3(F)F)c(=O)n2)cc(OC)c1OC` (stereo in doubt) [Compound 3] displayed an IC50 in the data set with HCV luciferase replicon (Huh-7, 48 h) of 0.274 ± 0.08 µM. The “Therapeutic Index (TC50/IC50)” value in the data set on HCV luciferase replicon is recorded as 210. In addition, the CC50 with HEK293 (setting [7]) stood at 1.1 µM; with PK9 cells [1], 18.5 ± 11.9 µM; in the data set with RPK9 cells it was 24.2 ± 4.2 µM; in the data set on BxPC3 (setting [8]) it was 4.07 µM; in the data set on HEPG2 (setting [9]), 1.57 µM; in the data set on MCF-7 (setting [10]) it was 0.683 µM. Besides, the CC50 with Huh7 (setting [11]) came out at 8.37 µM. Further, the CC50 at 48 h in data set [2] amounted to 57.5 ± 11.6 µM.

Regarding `CCCC(CCC)C(=O)Nc1ccn(C2O[C@H](CO)[C@@H](O)C2(F)F)c(=O)n1` (some centres unmarked) [Non-phosphorylated analog of Compound 1], the CC50 turned out to be 6.6 µM with PK9 cells [4] (read-out: TC50 (μM) in PK9 cells at 48 h With NBTI); 1.27 µM in the data set with PK9 cells [4] (setting [18]); 15.1 ± 1.77 µM in the data set with HEK293 (setting [13]); 1.27 ± 0.09 µM in the data set with PK9 cells [1]; 260 µM with Huh7 cells [5] (read-out: TC50 (μM) in Huh7 cells at 48 h With NBTI); 383 µM with Huh7 cells [5] (read-out: TC50 (μM) in Huh7 cells at 48 h Without NBTI). Besides, the CC50 in the data set with RPK9 cells was over 500 µM; in the data set with BxPC3 (setting [14]) it was 1.02 ± 0.15 µM; in the data set with HEPG2 (setting [15]) it was 4.32 ± 0.34 µM; in the data set on MCF-7 (setting [16]), 9.06 ± 1.95 µM; with Huh7 (setting [17]), 3.89 ± 0.68 µM. In addition, in the data set on HCV luciferase replicon (setting [12]), the IC50 was 0.451 ± 0.079 µM. Further, the “Therapeutic Index (TC50/IC50)” value in the data set with HCV luciferase replicon is 850. In [2] (Huh7 cells), this molecule yielded a CC50 at 48 h of 383 ± 51 µM. In data set [6], the tolerability entry is recorded as “well tolerated”. The “drop of HCV viral titer after 12 hours” value with genotype 1a HCV (single oral dosage 260 mg) stood at 8%. Besides, the “HCV viral titer after 12 hours” value in the data set with genotype 1a HCV (single oral dosage 260 mg in Formulation I, titer before 154,000 IU/ml) is recorded as 142,000 IU/ml.
